Where two headings read alike, the source gives them in different places. Numbered stars: 1 amine (or outer) side, 2 acyl side, 3 side chain; on linkers, the order of the positions; unused ones are H or OH. Bridge positions count the residues as written; N and C are the ends. Square brackets hold non-standard residues; d marks the D form. Peptide text beside a SMILES is read from it. I, II: the chains in the order shown. Phe(4-CF3) = N[C@@H](Cc1ccc(C(F)(F)F)cc1)C(=O)O; 2Nal = N[C@@H](Cc1ccc2ccccc2c1)C(=O)O; Diglycolyl = O=C(COCC(=O)[*:2])[*:1]; NMeR = CN[C@@H](CCCNC(=N)N)C(=O)O; hPhe = N[C@@H](CCc1ccccc1)C(=O)O; Pen = CC(C)(S)[C@H](N)C(=O)O; dNMeK = CN[C@H](CCCCN)C(=O)O; Dab = NCC[C@H](N)C(=O)O; Dap = NC[C@H](N)C(=O)O
Experiments:
[1] = Simulated Intestinal Fluid (SIF) Stability Assay; type: in vitro ADME, porcine; settings: pig, pH 6.5, Table 3-B
Experimental: Studies were carried out in simulated intestinal fluid (SIF) to evaluate intestinal stability of the peptide molecules of the instant invention. To prepare the SIF reagent, blank FASSIF was prepared by dissolving 0.348 g NaOH, 3.954 g sodium phosphate monobasic monohydrate and 6.186 g NaCl in a final volume of 1 liter water (final pH=6.5). To this solution, 24 g porcine pancreatin (Sigma catalog P7545) was added and stirred for 30 minutes (final pancreatin concentration is 2.4%). The solution was filtered through a cheese cloth and a No. 1 Whatman filter, and 10 ml aliquots were stored at −70° C. To run the reaction, a 10 ml aliquot was thawed at 37° C., and 125 ul aliquots were removed and mixed with an equal volume of blank FASSIF. The peptide stock solution (10 mM in 100% DMSO) was diluted 75-fold in blank FASSIF. A 50 μl aliquot of the diluted peptide was combined with 125 μl pancreatin (2.4%) and 125 μl blank FASSIF to yield final concentrations of 1% pancreatin and 22 μM peptide. The reactions were incubated at 37° C., and at various time points 50 μl aliquots were removed and added to 200 μl of quench solution containing 50% acetonitrile, 50% methanol, 5% formic acid, and 1 μg/ml internal standard. The quenched samples were centrifuged at 10,000 rpm for 10 minutes, and the supernatants were analyzed by LCMS/MS. The percent remaining at each time point was calculated based on the peak area response ratio of test to compound to internal standard. Half-lives were calculated by fitting to a first-order exponential decay equation using GraphPad.

α4β7 = α4β7 (Homo sapiens, UniProt P13612+P26010); assay: α4β7-MAdCAM Cell Adhesion Assay (RPMI 8866 human cells); type: cell-based; design: host or cells: RPMI 8866 human B lymphoblastoid cells; settings: Table 3-B, Potency (α4β7); range classes; read-out: α4β7 cell (Hu) IC50
Method in brief: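 Adhesion read-out: MTT absorbance at 570 nm minus no-cell wells, after three washes. Plates coated with rh MAdCAM-1/Fc received peptide dilutions plus 200,000 RPMI 8866 cells in Mn2+ (1 mM)-supplemented DMEM, 0.1% BSA, HEPES pH 7, incubated 30-45 min, 37 °C.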

[2] = simulated intestinal fluid (SIF) with 1% porcine pancreatin, > means experiment was stopped at that time and half life was not reached, read-out: Stabilty SIF t1/2
[3] = simulated intestinal fluid (SIF) with porcine pancreatin, > means experiment was stopped at that time and half life was not reached, read-out: Stabilty SIF t1/2

Chain of α4β7 (P13612 34-1032): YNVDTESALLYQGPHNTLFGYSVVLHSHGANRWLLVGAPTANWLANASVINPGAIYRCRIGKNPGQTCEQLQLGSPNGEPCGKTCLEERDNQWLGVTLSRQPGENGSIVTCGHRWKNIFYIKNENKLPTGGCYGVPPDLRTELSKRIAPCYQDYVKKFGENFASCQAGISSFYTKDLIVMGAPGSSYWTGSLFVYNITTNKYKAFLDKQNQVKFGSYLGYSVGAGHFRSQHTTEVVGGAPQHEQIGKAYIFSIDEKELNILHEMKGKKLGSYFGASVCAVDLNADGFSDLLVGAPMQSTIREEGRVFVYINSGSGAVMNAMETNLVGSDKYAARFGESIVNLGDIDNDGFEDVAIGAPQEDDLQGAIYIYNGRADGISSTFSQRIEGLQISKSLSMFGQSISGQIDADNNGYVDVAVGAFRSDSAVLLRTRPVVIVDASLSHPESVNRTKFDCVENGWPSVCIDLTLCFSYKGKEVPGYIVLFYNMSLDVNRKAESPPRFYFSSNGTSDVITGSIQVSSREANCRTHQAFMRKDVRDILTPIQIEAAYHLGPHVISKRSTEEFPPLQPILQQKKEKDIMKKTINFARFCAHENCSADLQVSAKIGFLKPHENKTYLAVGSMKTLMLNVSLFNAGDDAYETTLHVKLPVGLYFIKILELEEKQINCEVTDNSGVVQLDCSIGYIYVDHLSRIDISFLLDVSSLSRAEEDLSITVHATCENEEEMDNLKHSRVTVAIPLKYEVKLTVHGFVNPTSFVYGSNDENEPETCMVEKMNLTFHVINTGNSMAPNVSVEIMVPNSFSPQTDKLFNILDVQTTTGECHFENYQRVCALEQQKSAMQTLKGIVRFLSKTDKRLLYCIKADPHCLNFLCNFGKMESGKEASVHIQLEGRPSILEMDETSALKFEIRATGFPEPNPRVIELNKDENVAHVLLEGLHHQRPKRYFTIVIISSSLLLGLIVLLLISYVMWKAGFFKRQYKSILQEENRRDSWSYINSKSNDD
Chain of α4β7 (P26010 20-798): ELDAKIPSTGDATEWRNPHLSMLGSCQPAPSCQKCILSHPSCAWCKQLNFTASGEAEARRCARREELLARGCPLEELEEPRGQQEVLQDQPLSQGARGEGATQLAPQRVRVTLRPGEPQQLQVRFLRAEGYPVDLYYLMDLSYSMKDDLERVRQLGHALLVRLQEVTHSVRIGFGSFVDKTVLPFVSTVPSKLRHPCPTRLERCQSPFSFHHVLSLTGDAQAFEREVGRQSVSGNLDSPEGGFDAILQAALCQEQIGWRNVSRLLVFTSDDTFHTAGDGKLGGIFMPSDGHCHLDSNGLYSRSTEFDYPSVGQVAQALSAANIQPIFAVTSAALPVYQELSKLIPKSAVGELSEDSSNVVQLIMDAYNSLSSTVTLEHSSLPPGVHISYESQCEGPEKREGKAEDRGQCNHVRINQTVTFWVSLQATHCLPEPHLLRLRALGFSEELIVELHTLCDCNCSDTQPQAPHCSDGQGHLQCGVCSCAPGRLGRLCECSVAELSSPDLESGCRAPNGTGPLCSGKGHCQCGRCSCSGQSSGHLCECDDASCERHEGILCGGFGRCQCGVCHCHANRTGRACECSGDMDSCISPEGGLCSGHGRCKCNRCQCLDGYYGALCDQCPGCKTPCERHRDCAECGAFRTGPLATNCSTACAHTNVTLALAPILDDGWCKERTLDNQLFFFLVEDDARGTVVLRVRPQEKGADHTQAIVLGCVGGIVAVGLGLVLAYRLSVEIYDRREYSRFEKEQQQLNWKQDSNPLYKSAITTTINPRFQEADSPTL

half-life at 22 μM [1, 3] [min]	Compound	half-life at 22 μM [1, 2] [min]	IC50 (α4β7) [nM]	half-life at 22 μM ([1]; simulated intestinal fluid (SIF) with 1% porcine pancreatin, alone or in parentheses after >360, read-out: Stabilty SIF t1/2, in hr (converted)) [min]
–	CC(=O)N[C@@H]1C(=O)N(C)[C@@H](CCCNC(=N)N)C(=O)N[C@@H](CO)C(=O)N[C@@H](CC(=O)O)C(=O)N[C@@H]([C@@H](C)O)C(=O)N[C@@H](CC(C)C)C(=O)N[C@H](C(=O)N[C@@H](Cc2c[nH]c3ccccc23)C(=O)N[C@H](CCC(=O)O)C(=O)N[C@@H](CN)C(N)=O)C(C)(C)SSC1(C)C [compound 55] (Ac-[Pen][NMeR]SDTL[Pen]W[dE][Dap]-NH2; disulfide 1-7)	> 180	100 to 500	–
–	CC(=O)N[C@@H]1C(=O)N(C)[C@@H](CCCNC(=N)N)C(=O)N[C@@H](CO)C(=O)N[C@@H](CC(=O)O)C(=O)N[C@@H]([C@@H](C)O)C(=O)N[C@@H](CC(C)C)C(=O)N[C@H](C(=O)N[C@@H](Cc2ccc3ccccc3c2)C(=O)N[C@H](CCC(=O)O)C(=O)N(C)[C@H](CCCCNC(=O)COCC(=O)NCCCC[C@H](C(N)=O)N(C)C(=O)[C@@H](CCC(=O)O)NC(=O)[C@H](Cc2ccc3ccccc3c2)NC(=O)[C@H]2NC(=O)[C@H](CC(C)C)NC(=O)[C@H]([C@@H](C)O)NC(=O)[C@H](CC(=O)O)NC(=O)[C@H](CO)NC(=O)[C@H](CCCNC(=N)N)N(C)C(=O)[C@@H](NC(C)=O)C(C)(C)SSC2(C)C)C(N)=O)C(C)(C)SSC1(C)C [compound 39] (I: Ac-[Pen][NMeR]SDTL[Pen][2Nal][dE][dNMeK]-NH2 / II: Ac-[Pen][NMeR]SDTL[Pen][2Nal][dE][dNMeK]-NH2; disulfide I:1-I:7, II:1-II:7; linker I:10-II:10 via Diglycolyl)	> 180	10 to 25	–
–	CC(=O)N[C@@H]1C(=O)N(C)[C@@H](CCCNC(=N)N)C(=O)N[C@@H](CO)C(=O)N[C@@H](CC(=O)O)C(=O)N[C@@H]([C@@H](C)O)C(=O)N[C@@H](CC(C)C)C(=O)N[C@H](C(=O)N[C@@H](Cc2c[nH]c3ccccc23)C(=O)N[C@H](CCC(=O)O)C(=O)N[C@@H](CCN)C(N)=O)C(C)(C)SSC1(C)C [compound 56] (Ac-[Pen][NMeR]SDTL[Pen]W[dE][Dab]-NH2; disulfide 1-7)	> 180	500 to 1000	–
–	CC(=O)N[C@H](CCCCN)C(=O)N[C@H]1CSSC[C@@H](C(=O)N[C@@H](Cc2c[nH]c3ccccc23)C(=O)N[C@H](CCCCNC(=O)COCC(=O)NCCCC[C@@H](NC(=O)[C@H](Cc2c[nH]c3ccccc23)NC(=O)[C@@H]2CSSC[C@H](NC(=O)[C@@H](CCCCN)NC(C)=O)C(=O)N(C)[C@@H](CCCNC(=N)N)C(=O)N[C@@H](CO)C(=O)N[C@@H](CC(=O)O)C(=O)N[C@@H]([C@@H](C)O)C(=O)N[C@@H](CC(C)C)C(=O)N2)C(N)=O)C(N)=O)NC(=O)[C@H](CC(C)C)NC(=O)[C@H]([C@@H](C)O)NC(=O)[C@H](CC(=O)O)NC(=O)[C@H](CO)NC(=O)[C@H](CCCNC(=N)N)N(C)C1=O [compound 4] (I: Ac-[dK]C[NMeR]SDTLCW[dK]-NH2 / II: Ac-[dK]C[NMeR]SDTLCW[dK]-NH2; disulfide I:2-I:8, II:2-II:8; linker I:10-II:10 via Diglycolyl)	< 20	10 to 25	–
–	CC(=O)N[C@@H]1C(=O)N(C)[C@@H](CCCNC(=N)N)C(=O)N[C@@H](CO)C(=O)N[C@@H](CC(=O)O)C(=O)N[C@@H]([C@@H](C)O)C(=O)N[C@@H](CC(C)C)C(=O)N[C@H](C(=O)N[C@@H](Cc2c[nH]c3ccccc23)C(=O)O)C(C)(C)SSC1(C)C [compound 127] (Ac-[Pen][NMeR]SDTL[Pen]W-OH; disulfide 1-7)	–	100 to 500	2100
–	CC(=O)N[C@@H]1C(=O)N(C)[C@@H](CCCNC(=N)N)C(=O)N[C@@H](CO)C(=O)N[C@@H](CC(=O)O)C(=O)N[C@@H]([C@@H](C)O)C(=O)N[C@@H](CC(C)C)C(=O)N[C@H](C(=O)N[C@@H](CCc2ccccc2)C(=O)N[C@@H](CCC(=O)O)C(=O)N[C@H](CCCCNC(=O)COCC(=O)NCCCC[C@@H](NC(=O)[C@H](CCC(=O)O)NC(=O)[C@H](CCc2ccccc2)NC(=O)[C@H]2NC(=O)[C@H](CC(C)C)NC(=O)[C@H]([C@@H](C)O)NC(=O)[C@H](CC(=O)O)NC(=O)[C@H](CO)NC(=O)[C@H](CCCNC(=N)N)N(C)C(=O)[C@@H](NC(C)=O)C(C)(C)SSC2(C)C)C(N)=O)C(N)=O)C(C)(C)SSC1(C)C [compound 45] (I: Ac-[Pen][NMeR]SDTL[Pen][hPhe]E[dK]-NH2 / II: Ac-[Pen][NMeR]SDTL[Pen][hPhe]E[dK]-NH2; disulfide I:1-I:7, II:1-II:7; linker I:10-II:10 via Diglycolyl)	37	25 to 50	–
–	CC(=O)N[C@@H]1C(=O)N(C)[C@@H](CCCNC(=N)N)C(=O)N[C@@H](CO)C(=O)N[C@@H](CC(=O)O)C(=O)N[C@@H]([C@@H](C)O)C(=O)N[C@@H](CC(C)C)C(=O)N[C@H](C(=O)N[C@@H](Cc2c[nH]c3ccccc23)C(=O)N[C@H](Cc2c[nH]cn2)C(=O)N[C@H](CCCCNC(=O)COCC(=O)NCCCC[C@@H](NC(=O)[C@@H](Cc2c[nH]cn2)NC(=O)[C@H](Cc2c[nH]c3ccccc23)NC(=O)[C@H]2NC(=O)[C@H](CC(C)C)NC(=O)[C@H]([C@@H](C)O)NC(=O)[C@H](CC(=O)O)NC(=O)[C@H](CO)NC(=O)[C@H](CCCNC(=N)N)N(C)C(=O)[C@@H](NC(C)=O)C(C)(C)SSC2(C)C)C(N)=O)C(N)=O)C(C)(C)SSC1(C)C [compound 104] (I: Ac-[Pen][NMeR]SDTL[Pen]W[dH][dK]-NH2 / II: Ac-[Pen][NMeR]SDTL[Pen]W[dH][dK]-NH2; disulfide I:1-I:7, II:1-II:7; linker I:10-II:10 via Diglycolyl)	35	100 to 500	–
6	CC(=O)N[C@@H]1CCCCNC(=O)COCC(=O)NCCCC[C@@H](NC(C)=O)C(=O)N[C@H]2CSSC[C@H](NC(=O)[C@H](CC(C)C)NC(=O)[C@H]([C@@H](C)O)NC(=O)[C@H](CC(=O)O)NC(=O)[C@H](CO)NC(=O)[C@H](CCCNC(=N)N)N(C)C2=O)C(=O)N[C@@H](Cc2c[nH]c3ccccc23)C(=O)N[C@@H](C(N)=O)CCCCNC(=O)COCC(=O)NCCCC[C@H](C(N)=O)NC(=O)[C@H](Cc2c[nH]c3ccccc23)NC(=O)[C@@H]2CSSC[C@H](NC1=O)C(=O)N(C)[C@@H](CCCNC(=N)N)C(=O)N[C@@H](CO)C(=O)N[C@@H](CC(=O)O)C(=O)N[C@@H]([C@@H](C)O)C(=O)N[C@@H](CC(C)C)C(=O)N2 [compound 5] (I: Ac-[dK]C[NMeR]SDTLCW[dK]-NH2 / II: Ac-[dK]C[NMeR]SDTLCW[dK]-NH2; linker I:1-II:1, I:10-II:10 via Diglycolyl; disulfide I:2-I:8, II:2-II:8)	–	–	–
> 180	CC(=O)N[C@@H]1C(=O)N(C)[C@@H](CCCNC(=N)N)C(=O)N[C@@H](CO)C(=O)N[C@@H](CC(=O)O)C(=O)N[C@@H]([C@@H](C)O)C(=O)N[C@@H](CC(C)C)C(=O)N[C@H](C(=O)N[C@@H](Cc2ccc(C(F)(F)F)cc2)C(=O)N[C@H](CCC(=O)O)C(=O)N[C@H](CCCCNC(=O)COCC(=O)NCCCC[C@@H](NC(=O)[C@@H](CCC(=O)O)NC(=O)[C@H](Cc2ccc(C(F)(F)F)cc2)NC(=O)[C@H]2NC(=O)[C@H](CC(C)C)NC(=O)[C@H]([C@@H](C)O)NC(=O)[C@H](CC(=O)O)NC(=O)[C@H](CO)NC(=O)[C@H](CCCNC(=N)N)N(C)C(=O)[C@@H](NC(C)=O)C(C)(C)SSC2(C)C)C(N)=O)C(N)=O)C(C)(C)SSC1(C)C [compound 3] (I: Ac-[Pen][NMeR]SDTL[Pen][Phe(4-CF3)][dE][dK]-NH2 / II: Ac-[Pen][NMeR]SDTL[Pen][Phe(4-CF3)][dE][dK]-NH2; disulfide I:1-I:7, II:1-II:7; linker I:10-II:10 via Diglycolyl)	–	–	–

Source: patent publication US9809623B2, “α4β7 peptide monomer and dimer antagonists” (Protagonist Therapeutics, Inc., priority 2014, dated 2017)
